In patent publication US20250176547A1, “AGRICULTURE COMPOSITION” (Nippon Kayaku Kabushiki Kaisha, priority 2022, published 2025):

Legend:
Type in all cases: in vivo
kidney bean leaves = assay: Phytotoxicity evaluation of kidney bean leaves after Test Example 2
Experimental: (§1) Kidney bean leaves were cut into squares that measured 2.5 cm on one side, and the cut leaves were placed on absorbent cotton moistened with water. Ten first instar larvae of Thrips palmi were released thereon. 30 mL of the agricultural composition diluted 500 times with water was sprayed on the kidney bean leaves using a hand spray. After air drying, the larvae were kept in a constant temperature chamber at 25° C. One day after the treatment, life and death was observed, and the death rate was calculated. In addition, the state of the kidney bean leaves after the test was observed, and the phytotoxicity was also evaluated.
Evaluation Criteria for Phytotoxicity
• −: No change on the leaf surface • ±: Slight damage is recognized on the leaf surface • +: Damage is recognized on part of the leaf surface • ++: Damage is recognized on the entire surface of the leaf surface

Tetranychus urticae = assay: Biological Test Example 1: test for controlling Tetranychus urticae (leaf spray); conditions: composition diluted 1000 times with water, 30 mL sprayed on kidney bean leaves, 25° C., two days after the treatment
Experimental: Kidney bean leaves were cut into squares that measured 2.5 cm on one side, and the cut leaves were placed on absorbent cotton moistened with water. Ten Tetranychus urticae […] were released thereon. 30 mL of each agricultural composition diluted 1000 times with water was sprayed on the kidney bean leaves by using a hand spray. After air drying, the bean leaves were transferred into a plastic cup and stored in a constant temperature chamber at 25° C. Two days after the treatment, the life and death of the imagoes was observed, and the death rate was calculated.

Thrips palmi = assay: Biological Test Example 2: test for controlling Thrips palmi (leaf spray); conditions: first instar larvae; composition diluted 500 times with water, 30 mL sprayed on kidney bean leaves, 25° C., one day after the treatment
Experimental: as §1

Molecule	Test Example 2 Leaf shape phytotoxicity (kidney bean leaves; in vivo)	Test Example 1 Spider mite imagoes (death rate) (Tetranychus urticae) [%]	Test Example 2 Thrip larvae (death rate) (Thrips palmi) [%]	Test Example 2 Leaf shape phytotoxicity (kidney bean leaves; kidney bean leaves after the test, composition diluted 500 times with water)
Diglycerin monocaprylic acid ester [Comparative Example 1]	−	60	20	
N,N-dimethyl fatty acid (C8-10) amide [Comparative Example 4]	++			
Propylene glycol monolauric acid ester [Comparative Example 3]		100	50	−
N,N-dimethyl fatty acid (C12-14) amide [Comparative Example 6]	+++			
CCCCCCCCCCCCN1CCCC1=O [Comparative Example 8, N-lauryl-2-pyrrolidone]	+++	100	100	
Sorbitan monolauric acid ester [Comparative Example 2]	−	0	20	
